Experimental data from patent US20240116985A1, “STAPLED PEPTIDES AND METHODS THEREOF” (priority 2020, published 2024).

How the values were obtained:
[1] = target: T1, beta-catenin/TCF4 engagement (Homo sapiens, UniProt P35222); test: Nano-BRET target engagement assay (B-cat-Halo & TCF4-Luc in HEK293 cells); format: cell-based; settings: read-out: NanoBRET Abs IC50
T1 construct: expressed in transfected cells; host or cells: HEK293
T1 sequence (P35222 1-781): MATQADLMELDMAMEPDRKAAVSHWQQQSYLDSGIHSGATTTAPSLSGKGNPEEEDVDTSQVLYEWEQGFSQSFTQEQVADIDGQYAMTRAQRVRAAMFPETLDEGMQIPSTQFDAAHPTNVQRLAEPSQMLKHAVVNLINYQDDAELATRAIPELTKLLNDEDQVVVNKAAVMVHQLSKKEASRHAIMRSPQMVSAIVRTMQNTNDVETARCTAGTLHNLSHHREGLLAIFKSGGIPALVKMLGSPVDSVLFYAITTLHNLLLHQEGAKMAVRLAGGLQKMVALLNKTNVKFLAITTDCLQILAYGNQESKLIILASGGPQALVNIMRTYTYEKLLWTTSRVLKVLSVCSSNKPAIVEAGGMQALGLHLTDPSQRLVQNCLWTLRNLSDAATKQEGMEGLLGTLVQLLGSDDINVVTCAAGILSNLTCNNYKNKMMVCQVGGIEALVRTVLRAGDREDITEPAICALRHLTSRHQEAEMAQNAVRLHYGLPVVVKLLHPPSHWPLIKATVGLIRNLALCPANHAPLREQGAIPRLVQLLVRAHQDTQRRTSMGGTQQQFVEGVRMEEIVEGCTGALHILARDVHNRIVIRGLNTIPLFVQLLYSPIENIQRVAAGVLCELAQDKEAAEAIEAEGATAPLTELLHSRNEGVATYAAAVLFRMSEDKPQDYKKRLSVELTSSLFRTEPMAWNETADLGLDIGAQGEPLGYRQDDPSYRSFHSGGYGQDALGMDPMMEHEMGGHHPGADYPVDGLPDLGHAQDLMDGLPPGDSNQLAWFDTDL

[2] = target: T2, full-length beta-Catenin (Uniprot ID P35222) (Homo sapiens, UniProt P35222); test: Fluorescence polarization IC50 (beta-catenin / 5FAM-TCF4 10-53 competition); format: binding; settings: fluorescence polarization; read-out: beta-Catenin FP IC50
T2 construct: 10 nM full-length beta-Catenin (Uniprot ID P35222)
T2 sequence (P35222 1-781): T1 sequence (P35222 1-781)

| Compound | IC50 [1] [nM] | IC50 [2] [nM] |
| --- | --- | --- |
| CC(=O)N1CCC[C@]12CC=CCCCC1(CCCC=CCCCOC(=O)N3CC[C@@](C(=O)N[C@@H](Cc4ccsc4)C(=O)N[C@@H](Cc4csc5ccccc45)C(=O)N[C@H](CCC(N)=O)C(N)=O)(C3)NC(=O)[C@H](Cc3ccccc3)NC(=O)[C@H](Cc3ccccc3)NC(=O)[C@H](C)NC(=O)[C@H](C)NC(=O)[C@H](Cc3cccc(C(=O)O)c3)NC(=O)[C@H](CC(=O)O)NC1=O)NC(=O)[C@H](CC(C)(C)C)NC(=O)[C@H](CC(=O)O)NC2=O (stereo partly drawn) [I-2092, Ac-PL3-Asp-Npg-B5-Asp-3COOHF-Ala-Ala-Phe-Phe-PyrS2-3Thi-BztA-dGln-NH2] | 4400 | 15 |
| CC(=O)N1CCC[C@]12CC=CCCCC1(CCCC=CCCCOC(=O)N3CC[C@@](C(=O)N[C@@H](Cc4ccccc4C(F)(F)F)C(=O)N[C@@H](Cc4csc5ccccc45)C(=O)N[C@H](CCC(N)=O)C(N)=O)(C3)NC(=O)[C@H](Cc3ccccc3)NC(=O)[C@H](Cc3ccccc3)NC(=O)[C@H](C)NC(=O)[C@H](C)NC(=O)[C@H](Cc3cccc(C(=O)O)c3)NC(=O)[C@H](CC(=O)O)NC1=O)NC(=O)[C@H](CC(C)(C)C)NC(=O)[C@H](CC(=O)O)NC2=O (stereo partly drawn) [I-2093, Ac-PL3-Asp-Npg-B5-Asp-3COOHF-Ala-Ala-Phe-Phe-PyrS2-2F3MeF-BztA-dGln-NH2] | 5000 | 43 |
| CC(=O)N1CCC[C@]12CC=CCCCC1(CCCC=CCCCOC(=O)N3CC[C@@](C(=O)N[C@@H](Cc4ccsc4)C(=O)N[C@@H](Cc4csc5ccccc45)C(=O)N[C@H](C)C(N)=O)(C3)NC(=O)[C@H](Cc3ccccc3)NC(=O)[C@H](Cc3ccccc3)NC(=O)[C@H](C)NC(=O)[C@H](C)NC(=O)[C@H](Cc3cccc(C(=O)O)c3)NC(=O)[C@H](CC(=O)O)NC1=O)NC(=O)[C@H](CC(C)(C)C)NC(=O)[C@H](CC(=O)O)NC2=O (stereo partly drawn) [I-2094, Ac-PL3-Asp-Npg-B5-Asp-3COOHF-Ala-Ala-Phe-Phe-PyrS2-3Thi-BztA-dAla-NH2] | 9700 | 28 |
| CC(=O)N1CCC[C@]12CC=CCCCC1(CCCC=CCCCOC(=O)N3CC[C@@](C(=O)N[C@@H](Cc4ccccc4C(F)(F)F)C(=O)N[C@@H](Cc4csc5ccccc45)C(=O)N[C@H](C)C(N)=O)(C3)NC(=O)[C@H](Cc3ccccc3)NC(=O)[C@H](Cc3ccccc3)NC(=O)[C@H](C)NC(=O)[C@H](C)NC(=O)[C@H](Cc3cccc(C(=O)O)c3)NC(=O)[C@H](CC(=O)O)NC1=O)NC(=O)[C@H](CC(C)(C)C)NC(=O)[C@H](CC(=O)O)NC2=O (stereo partly drawn) [I-2095, Ac-PL3-Asp-Npg-B5-Asp-3COOHF-Ala-Ala-Phe-Phe-PyrS2-2F3MeF-BztA-dAla-NH2] | 10500 | 78 |
| CC(=O)N1CCC[C@]12CC=CCCCC1(CCCC=CCCCOC(=O)N3CC[C@@](C(=O)N[C@@H](Cc4ccsc4)C(=O)N[C@@H](Cc4csc5ccccc45)C(=O)N[C@@H](C)C(N)=O)(C3)NC(=O)[C@H](CC(C)C)NC(=O)[C@H](Cc3ccccc3)NC(=O)[C@@H](C)NC(=O)[C@H](C)NC(=O)[C@H](Cc3cccc(C(=O)O)c3)NC(=O)[C@H](CC(=O)O)NC1=O)NC(=O)[C@H](CC(C)(C)C)NC(=O)[C@H](CC(=O)O)NC2=O (stereo partly drawn) [I-2096, Ac-PL3-Asp-Npg-B5-Asp-3COOHF-Ala-dAla-Phe-Leu-PyrS2-3Thi-BztA-Ala-NH2] | > 20000 | 79 |
| CC(=O)N1CCC[C@]12CC=CCCCC1(CCCC=CCCCOC(=O)N3CC[C@@](C(=O)N[C@@H](Cc4ccsc4)C(=O)N[C@@H](Cc4csc5ccccc45)C(=O)N[C@@H](C)C(N)=O)(C3)NC(=O)[C@H](CC(C)C)NC(=O)[C@H](Cc3ccccc3)NC(=O)[C@@H](C)NC(=O)[C@H](C)NC(=O)[C@H](Cc3cccc(C(=O)O)c3)NC(=O)[C@H](CC(=O)O)NC1=O)NC(=O)[C@H](CC(C)(C)C)NC(=O)[C@H](CC(=O)O)NC2=O (stereo partly drawn) [I-2097, Ac-PL3-Asp-Npg-B5-Asp-3COOHF-Ala-dAla-Phe-Leu-PyrS2-3Thi-BztA-Ala-NH2] | 22300 | 23 |
| CC(=O)N1CCC[C@]12CC=CCCCC1(CCCC=CCCCOC(=O)N3CC[C@@](C(=O)N[C@@H](Cc4ccccc4C(F)(F)F)C(=O)N[C@@H](Cc4csc5ccccc45)C(=O)N[C@@H](C)C(N)=O)(C3)NC(=O)[C@H](CC(C)C)NC(=O)[C@H](Cc3ccccc3)NC(=O)[C@@H](C)NC(=O)[C@H](C)NC(=O)[C@H](Cc3cccc(C(=O)O)c3)NC(=O)[C@H](CC(=O)O)NC1=O)NC(=O)[C@H](CC(C)(C)C)NC(=O)[C@H](CC(=O)O)NC2=O (stereo partly drawn) [I-2098, Ac-PL3-Asp-Npg-B5-Asp-3COOHF-Ala-dAla-Phe-Leu-PyrS2-2F3MeF-BztA-Ala-NH2] | > 20000 | 260 |
| CC(=O)N1CCC[C@]12CC=CCCCC1(CCCC=CCCCOC(=O)N3CC[C@@](C(=O)N[C@@H](Cc4ccsc4)C(=O)N[C@@H](Cc4csc5ccccc45)C(=O)N[C@H](C)C(N)=O)(C3)NC(=O)[C@H](CC(C)C)NC(=O)[C@H](Cc3ccccc3)NC(=O)[C@@H](C)NC(=O)[C@H](C)NC(=O)[C@H](Cc3cccc(C(=O)O)c3)NC(=O)[C@H](CC(=O)O)NC1=O)NC(=O)[C@H](CC(C)(C)C)NC(=O)[C@H](CC(=O)O)NC2=O (stereo partly drawn) [I-2100, Ac-PL3-Asp-Npg-B5-Asp-3COOHF-Ala-dAla-Phe-Leu-PyrS2-3Thi-BztA-dAla-NH2] | > 20000 | 86 |
| CC(=O)N1CCC[C@]12CC=CCCCC1(CCCC=CCCCOC(=O)N3CC[C@@](C(=O)N[C@@H](Cc4ccccc4)C(=O)N[C@@H](Cc4csc5ccccc45)C(=O)N[C@@H](CCO)C(N)=O)(C3)NC(=O)[C@H](CCCCNC(C)C)NC(=O)[C@H](Cc3ccccc3)NC(=O)[C@H](C)NC(=O)[C@H](CCCCNC(C)C)NC(=O)[C@H](CCC(N)=O)NC(=O)[C@H](CC(=O)O)NC1=O)NC(=O)[C@H](CC1CCCCC1)NC(=O)[C@H](CC(N)=O)NC2=O (stereo partly drawn) [I-2102, Ac-PL3-Asn-Cha-B5-Asp-Gln-iPrLys-Ala-Phe-iPrLys-PyrS2-Phe-BztA-Hse-NH2] | > 20000 | 273 |
| CC(=O)N1CCC[C@]12CC=CCCCC1(CCCC=CCCCOC(=O)N3CC[C@@](C(=O)N[C@@H](Cc4ccccc4)C(=O)N[C@@H](Cc4csc5ccccc45)C(=O)N[C@@H](Cc4c[nH]cn4)C(N)=O)(C3)NC(=O)[C@H](CC(N)=O)NC(=O)[C@H](Cc3ccccc3)NC(=O)[C@H](C)NC(=O)[C@H](CCCCNC(C)C)NC(=O)[C@H](CCC(N)=O)NC(=O)[C@H](CC(=O)O)NC1=O)NC(=O)[C@H](CC1CCCCC1)NC(=O)[C@H](CC(N)=O)NC2=O (stereo partly drawn) [I-2109, Ac-PL3-Asn-Cha-B5-Asp-Gln-iPrLys-Ala-Phe-Asn-PyrS2-Phe-BztA-His-NH2] | > 20000 | 136 |
| CC(=O)N1CCC[C@]12CC=CCCCC1(CCCC=CCCCOC(=O)N3CC[C@@](C(=O)N[C@@H](Cc4ccccc4)C(=O)N[C@@H](Cc4csc5ccccc45)C(=O)N[C@@H](CCCCN)C(N)=O)(C3)NC(=O)[C@H](CC(N)=O)NC(=O)[C@H](Cc3ccccc3)NC(=O)[C@H](C)NC(=O)[C@H](CCCCNC(C)C)NC(=O)[C@H](CCC(N)=O)NC(=O)[C@H](CC(=O)O)NC1=O)NC(=O)[C@H](CC1CCCCC1)NC(=O)[C@H](CC(N)=O)NC2=O (stereo partly drawn) [I-2110, Ac-PL3-Asn-Cha-B5-Asp-Gln-iPrLys-Ala-Phe-Asn-PyrS2-Phe-BztA-Lys-NH2] | > 20000 | 88 |
